Measured values: patent US20260317324A1, “BIFUNCTIONAL COMPOUNDS FOR DEGRADING BRAF VIA UBIQUITIN PROTEOSOME PATHWAY” (Nurix Therapeutics, Inc., priority 2023, published 2026)

Target: T1, BRAF V600E (Homo sapiens, UniProt P15056, V600E)
T1 construct: endogenous C-terminal HiBiT fusion tag on BRAF V600E allele; endogenous in cells; host or cells: A375 clone 1F10 (CRISPR-Cas9 knock-in of the HiBiT tag; parental A375 from ATCC)
Experiment: BRAF HiBiT degradation assay, C-terminal HiBiT-tagged BRAF V600E A375 cells (clone 1F10), Nano-Glo HiBiT Lytic assay
Format: cell-based
Conditions: for Dmax: A-375
Method in brief: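 A375 cells (clone 1F10, endogenous C-terminal HiBiT on BRAF V600E) were seeded at 10,000 cells/well, grown 24 h, then dosed in duplicate with an 11-point series from 1 μM to 0.01 nM (0.2% DMSO). Nano-Glo HiBiT lytic luminescence was normalised to DMSO and wildtype-A375 background; DC50 was read at 50% protein remaining, alongside observed Dmax.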

[1] = A375 (BRAF V600E), DC50 at 50%: fitted conc. at Y=50
[2] = A375 (BRAF V600E), percentage protein degraded at maximal compound effect relative to DMSO

T1 sequence (P15056 whole entry V600E, the tested form may be a part): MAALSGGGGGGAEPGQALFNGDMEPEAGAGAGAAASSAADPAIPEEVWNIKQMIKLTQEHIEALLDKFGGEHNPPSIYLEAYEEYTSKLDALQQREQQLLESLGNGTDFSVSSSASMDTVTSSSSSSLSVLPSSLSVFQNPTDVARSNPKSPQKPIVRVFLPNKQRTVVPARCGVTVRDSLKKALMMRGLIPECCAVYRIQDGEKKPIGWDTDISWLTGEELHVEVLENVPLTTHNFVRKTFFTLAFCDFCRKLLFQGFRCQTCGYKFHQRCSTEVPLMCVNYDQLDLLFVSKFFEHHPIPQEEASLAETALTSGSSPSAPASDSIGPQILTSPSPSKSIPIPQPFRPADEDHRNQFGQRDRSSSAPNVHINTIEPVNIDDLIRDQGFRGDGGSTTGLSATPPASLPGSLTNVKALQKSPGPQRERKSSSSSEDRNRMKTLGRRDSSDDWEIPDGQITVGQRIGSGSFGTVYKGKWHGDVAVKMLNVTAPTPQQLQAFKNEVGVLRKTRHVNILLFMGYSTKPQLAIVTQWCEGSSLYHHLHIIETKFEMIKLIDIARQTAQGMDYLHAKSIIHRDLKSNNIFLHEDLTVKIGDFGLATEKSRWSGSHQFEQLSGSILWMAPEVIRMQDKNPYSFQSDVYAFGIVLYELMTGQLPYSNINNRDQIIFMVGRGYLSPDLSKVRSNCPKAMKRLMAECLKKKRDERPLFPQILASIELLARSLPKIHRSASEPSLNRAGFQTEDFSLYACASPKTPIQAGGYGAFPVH

DC50 (A375 (BRAF V600E, Class 1), DC50 at 50% degradation) [nM]	Dmax (A375 (BRAF V600E, Class 1), observed Dmax, % protein degraded relative to DMSO control) [%]	DC50 [1] [nM]	Dmax [2] [%]	SMILES
< 10	> 70			O=C1CC[C@H](c2ccc(N3CCC(CN4CCN(c5ccc(-n6cc(-c7cc(F)cc(NS(=O)(=O)N8CCCC8)c7F)c(-c7ccncc7)n6)c(F)c5)CC4)CC3)cc2)C(=O)N1 [Compound 340, N-{3-[1-(4-{4-[(1-{4-[(3R)-2,6-dioxopiperidin-3-yl]phenyl}piperidin-4-yl)methyl]piperazin-1-yl}-2-fluorophenyl)-3-(pyridin-4-yl)-1H-pyrazol-4-yl]-2,5-difluorophenyl}pyrrolidine-1-sulfonamide]
		10 to 50	30 to 70	CCCS(=O)(=O)Nc1cccc(-c2nc(C(C)(C)C)sc2-c2ccnc(Nc3ccc(C4CCN(C(=O)C[C@@H]5CCN(c6ccc7c(c6)n(C)c(=O)n7C6CCC(=O)NC6=O)C5)CC4)cc3)n2)c1F (mixture of isomers) [Compound 162, N-{3-[2-tert-butyl-5-(2-{[4-(1-{2-[(3S)-1-{1-[(3RS)-2,6-dioxopiperidin-3-yl]-3-methyl-2-oxo-2,3-dihydro-1H-1,3-benzodiazol-5-yl}pyrrolidin-3-yl]acetyl}piperidin-4-yl)phenyl]amino}pyrimidin-4-yl)-1,3-thiazol-4-yl]-2-fluorophenyl}propane-1-sulfonamide]
		< 10	> 70	CCCS(=O)(=O)Nc1cccc(-c2nc(C)sc2-c2ccnc(Nc3ccc(N4CCN(CC5(C)CCN(c6ccc(C7CCC(=O)NC7=O)cn6)CC5)CC4)cc3)n2)c1F (racemic) [Compound 32, Rac-N-[3-(5-{2-[(4-{4-[(1-{5-[(3R)-2,6-dioxopiperidin-3-yl]pyridin-2-yl}-4-methylpiperidin-4-yl)methyl]piperazin-1-yl}phenyl)amino]pyrimidin-4-yl}-2-methyl-1,3-thiazol-4-yl)-2-fluorophenyl]propane-1-sulfonamide]
		10 to 50	> 70	CCCS(=O)(=O)Nc1cccc(-c2nc(C(C)(C)C)sc2-c2ccnc(Nc3cnn(C4CCN(CC[C@@H]5CCN(c6ccc(C7CCC(=O)NC7=O)cn6)C5)CC4)c3)n2)c1F (mixture of isomers) [Compound 78, N-{3-[2-tert-butyl-5-(2-{[1-(1-{2-[(3R)-1-{5-[(3RS)-2,6-dioxopiperidin-3-yl]pyridin-2-yl}pyrrolidin-3-yl]ethyl}piperidin-4-yl)-1H-pyrazol-4-yl]amino}pyrimidin-4-yl)-1,3-thiazol-4-yl]-2-fluorophenyl}propane-1-sulfonamide]
		> 500	30 to 70	CCCS(=O)(=O)Nc1cccc(-c2nc(C(C)(C)C3CCN(C(=O)CN4CCC5(CC4)CN(c4ccc6c(c4)C(=O)N(C4CCC(=O)NC4=O)C6=O)C5)CC3)sc2-c2ccnc(N)n2)c1F (racemic) [Compound 240, Rac-N-{3-[5-(2-aminopyrimidin-4-yl)-2-(2-{1-[2-(2-{2-[(3R)-2,6-dioxopiperidin-3-yl]-1,3-dioxo-2,3-dihydro-1H-isoindol-5-yl}-2,7-diazaspiro[3.5]nonan-7-yl)acetyl]piperidin-4-yl}propan-2-yl)-1,3-thiazol-4-yl]-2-fluorophenyl}propane-1-sulfonamide]
		50 to 500	30 to 70	CCCS(=O)(=O)Nc1cccc(-c2nc(C(C)(C)C)sc2-c2ccnc(Nc3cnn(CC4CCN(C(=O)C5CCN(c6ccc(C(=O)NC7CCC(=O)NC7=O)nc6)CC5)CC4)c3)n2)c1F (racemic) [Compound 115, Rac-5-{4-[4-({4-[(4-{2-tert-butyl-4-[2-fluoro-3-(propane-1-sulfonamido)phenyl]-1,3-thiazol-5-yl}pyrimidin-2-yl)amino]-1H-pyrazol-1-yl}methyl)piperidine-1-carbonyl]piperidin-1-yl}-N-[(3R)-2,6-dioxopiperidin-3-yl]pyridine-2-carboxamide]
		50 to 500	30 to 70	CCCS(=O)(=O)Nc1cccc(-c2nc(C(C)(C)C)sc2-c2ccnc(NC3CC4(C3)CN(CC[C@H]3CCN(c5ccc(C6CCC(=O)NC6=O)cn5)C3)C4)n2)c1F (mixture of isomers) [Compound 172, N-[3-(2-tert-butyl-5-{2-[(2-{2-[(3S)-1-{5-[(3RS)-2,6-dioxopiperidin-3-yl]pyridin-2-yl}pyrrolidin-3-yl]ethyl}-2-azaspiro[3.3]heptan-6-yl)amino]pyrimidin-4-yl}-1,3-thiazol-4-yl)-2-fluorophenyl]propane-1-sulfonamide]
		50 to 500	30 to 70	CCCS(=O)(=O)Nc1cccc(-c2nc(C(C)(C)C)sc2-c2ccnc(Nc3ccc(C4CCN(C(=O)CCCC(=O)N[C@H](C(=O)N5C[C@H](O)C[C@H]5C(=O)N[C@@H](C)c5ccc(-c6scnc6C)cc5)C(C)(C)C)CC4)cc3)n2)c1F [Compound 86, (2S,4R)-1-[(2S)-2-[5-(4-{4-[(4-{2-tert-butyl-4-[2-fluoro-3-(propane-1-sulfonamido)phenyl]-1,3-thiazol-5-yl}pyrimidin-2-yl)amino]phenyl}piperidin-1-yl)-5-oxopentanamido]-3,3-dimethylbutanoyl]-4-hydroxy-N-[(1S)-1-[4-(4-methyl-1,3-thiazol-5-yl)phenyl]ethyl]pyrrolidine-2-carboxamide]
		< 10	> 70	CCCS(=O)(=O)Nc1cccc(-c2nc(C3CCN(C(=O)C4(C)CCN(C(=O)C5CCN(c6ccc(C7CCC(=O)NC7=O)cc6)CC5)CC4)CC3)sc2-c2ccncn2)c1F (racemic) [Compound 178, Rac-N-[3-(2-{1-[1-(1-{4-[(3R)-2,6-dioxopiperidin-3-yl]phenyl}piperidine-4-carbonyl)-4-methylpiperidine-4-carbonyl]piperidin-4-yl}-5-(pyrimidin-4-yl)-1,3-thiazol-4-yl)-2-fluorophenyl]propane-1-sulfonamide]
		> 500	30 to 70	CCCS(=O)(=O)Nc1cccc(-c2nc(C3CCC4(CC3)CCN(C(=O)CN3CCN(CCCc5cccc6c5C(=O)N(C5CCC(=O)NC5=O)C6=O)CC3)CC4)sc2-c2ccnc(N)n2)c1F (racemic) [Compound 229, Rac-N-{3-[5-(2-aminopyrimidin-4-yl)-2-(3-{2-[4-(3-{2-[(3R)-2,6-dioxopiperidin-3-yl]-1,3-dioxo-2,3-dihydro-1H-isoindol-4-yl}propyl)piperazin-1-yl]acetyl}-3-azaspiro[5.5]undecan-9-yl)-1,3-thiazol-4-yl]-2-fluorophenyl}propane-1-sulfonamide]
		10 to 50	> 70	CCCS(=O)(=O)Nc1cccc(-c2nc(C)sc2-c2ccnc(Nc3ccc(N4CCN(CC5CCN(c6ccc([C@H]7CCC(=O)NC7=O)cc6)CC5)CC4)cn3)n2)c1F [Compound 60, N-[3-(5-{2-[(5-{4-[(1-{4-[(3R)-2,6-dioxopiperidin-3-yl]phenyl}piperidin-4-yl)methyl]piperazin-1-yl}pyridin-2-yl)amino]pyrimidin-4-yl}-2-methyl-1,3-thiazol-4-yl)-2-fluorophenyl]propane-1-sulfonamide]
		10 to 50	30 to 70	CCCS(=O)(=O)Nc1cccc(-c2nc(C(C)(C)C)sc2-c2ccnc(Nc3ccc(C4CCN(C(=O)C5CCN(c6cccc7c6n(C)c(=O)n7C6CCC(=O)NC6=O)CC5)CC4)cc3)n2)c1F (racemic) [Compound 161, Rac-N-(3-{2-tert-butyl-5-[2-({4-[1-(1-{1-[(3R)-2,6-dioxopiperidin-3-yl]-3-methyl-2-oxo-2,3-dihydro-1H-1,3-benzodiazol-4-yl}piperidine-4-carbonyl)piperidin-4-yl]phenyl}amino)pyrimidin-4-yl]-1,3-thiazol-4-yl}-2-fluorophenyl)propane-1-sulfonamide]
		50 to 500	30 to 70	CCCS(=O)(=O)Nc1cccc(-c2nc(C(C)(C)C)sc2-c2ccnc(N[C@H]3CC[C@H](N4CCN(CC5CCN(c6ccc(C7CCC(=O)NC7=O)cn6)CC5)CC4)CC3)n2)c1F (mixture of isomers) [Compound 135, N-{3-[2-tert-butyl-5-(2-{[(1r,4r)-4-{4-[(1-{5-[(3RS)-2,6-dioxopiperidin-3-yl]pyridin-2-yl}piperidin-4-yl)methyl]piperazin-1-yl}cyclohexyl]amino}pyrimidin-4-yl)-1,3-thiazol-4-yl]-2-fluorophenyl}propane-1-sulfonamide]
		50 to 500	30 to 70	CCCS(=O)(=O)Nc1cccc(-c2nc(C(C)(C)C)sc2-c2ccnc(Nc3ccc(C4CCN(C(=O)C[C@@H]5CCN(c6ccc(C7CCC(=O)NC7=O)cc6)C5)CC4)cc3)n2)c1F (mixture of isomers) [Compound 166, N-{3-[2-tert-butyl-5-(2-{[4-(1-{2-[(3S)-1-{4-[(3RS)-2,6-dioxopiperidin-3-yl]phenyl}pyrrolidin-3-yl]acetyl}piperidin-4-yl)phenyl]amino}pyrimidin-4-yl)-1,3-thiazol-4-yl]-2-fluorophenyl}propane-1-sulfonamide]
		< 10	> 70	CCCS(=O)(=O)Nc1cccc(-c2nc(C3CCN(CC4CCN(C(=O)C5CCN(c6ccc(C7CCC(=O)NC7=O)cn6)CC5)CC4)CC3)sc2-c2ccnc(N)n2)c1F (racemic) [Compound 213, Rac-N-{3-[5-(2-aminopyrimidin-4-yl)-2-(1-{[1-(1-{5-[(3R)-2,6-dioxopiperidin-3-yl]pyridin-2-yl}piperidine-4-carbonyl)piperidin-4-yl]methyl}piperidin-4-yl)-1,3-thiazol-4-yl]-2-fluorophenyl}propane-1-sulfonamide]
